Laboratory results as given in patent publication US4202819A, “2-(3-Alanyl)clavam antibiotic” (Hoffman-La Roche Inc., priority 1979, dated 1980).
≈ marks a conversion by molar mass, not a printed value. Where two headings read alike, the source gives them in different places.

How the values were obtained:
Assay in all cases: in vitro antimicrobial activity (MIC), agar diffusion well method
Format in all cases: cell-based
[1] = tested on: Bacillus subtilis 558 (NRRL 558)
Procedure: (§1) The in vitro antimicrobial activity of the antibiotic (minimal inhibitory concentration) was determined by the agar diffusion well method. The results expressed in micrograms/ml were as follows: […]

[2] = tested on: Klebsiella pneumoniae 369 (ATCC 27858)
Procedure: as §1

[3] = tested on: Staphylococcus aureus 82 (ATCC 6538 P); settings: ATCC6538, BBL Antibiotic Medium "A" Assay Agar
Procedure: as §1

[4] = tested on: Mycobacterium phlei 78 (ATCC 355); settings: Mycolicibacterium phlei
Procedure: as §1

[5] = tested on: Streptococcus faecium (ATCC 8043); settings: Enterococcus faecium, ATCC8043; BBL Antibiotic Medium "A" Assay Agar
Procedure: as §1

[6] = tested on: Saccharomyces cerevisiae 90 (ATCC 4226)
Procedure: as §1

[7] = tested on: Bacillus megaterium 164 (ATCC 8011); settings: Priestia megaterium
Procedure: as §1

[8] = tested on: Bacillus sp. E (ATCC 27859); settings: ATCC27859, BBL Antibiotic Medium "A" Assay Agar
Procedure: as §1

[9] = tested on: Penicillium digitatum 0184 (ATCC 26821); settings: ATCC26821, BBL Antibiotic Medium "A" Assay Agar
Procedure: as §1

[10] = tested on: Serratia sp. 101 (ATCC 93)
Procedure: as §1

[11] = tested on: Escherichia coli 94 (ATCC 27856)
Procedure: as §1

[12] = tested on: Proteus vulgaris 101N (ATCC 6380); settings: ATCC6380, BBL Antibiotic Medium "A" Assay Agar
Procedure: as §1

[13] = tested on: Pseudomonas aeruginosa 56 (ATCC 8709)
Procedure: as §1

[14] = tested on: Sarcina lutea PCI (ATCC 9341); settings: Micrococcus luteus
Procedure: as §1

[15] = tested on: Acinetobacter calcoaceticus PCI-3 (ATCC 10153)
Procedure: as §1

[16] = tested on: Streptomyces cellulosae 097 (ATCC 3313)
Procedure: as §1

[17] = tested on: Candida albicans 155 (NRRL 477)
Procedure: as §1

[18] = tested on: Bacillus sp. TA (ATCC 27860)
Procedure: as §1

[19] = tested on: Serratia marcescens SM (ATCC 27857)
Procedure: as §1

[20] = tested on: Paecilomyces varioti M16 (ATCC 26820)
Procedure: as §1

SMILES: N[C@@H](CC1CN2C(=O)CC2O1)C(=O)O (some centres unmarked) [2-(3-alanyl)clavam, 3-(7-oxo-4-oxa-1-azabicyclo[3.2.0]hept-3-yl)alanine]
- MIC ([1]; NRRL558, BBL Antibiotic Medium "A" Assay Agar): > 1000 µg/mL
- MIC ([1]; NRRL558, Davis Minimal Agar): 0.25 µg/mL (≈ 0.00125 mM)
- MIC ([2]; ATCC27858, BBL Antibiotic Medium "A" Assay Agar): > 1000 µg/mL
- MIC ([2]; ATCC27858, Davis Minimal Agar): 62.5 µg/mL (≈ 0.312 mM)
- MIC [3]: > 1000 µg/mL
- MIC ([4]; ATCC355, BBL Antibiotic Medium "A" Assay Agar): > 1000 µg/mL
- MIC ([4]; ATCC355, Davis Minimal Agar): > 500 µg/mL
- MIC [5]: > 1000 µg/mL
- MIC ([6]; ATCC4226, BBL Antibiotic Medium "A" Assay Agar): > 1000 µg/mL
- MIC ([6]; ATCC4226, Davis Minimal Agar): 125 µg/mL (≈ 0.624 mM)
- MIC ([7]; ATCC8011, BBL Antibiotic Medium "A" Assay Agar): > 1000 µg/mL
- MIC ([7]; ATCC8011, Davis Minimal Agar): > 500 µg/mL
- MIC [8]: > 1000 µg/mL
- MIC [9]: > 1000 µg/mL
- MIC ([10]; ATCC93, BBL Antibiotic Medium "A" Assay Agar): > 1000 µg/mL
- MIC ([10]; ATCC93, Davis Minimal Agar): 500 µg/mL (≈ 2.5 mM)
- MIC ([11]; ATCC27856, BBL Antibiotic Medium "A" Assay Agar): > 1000 µg/mL
- MIC ([11]; ATCC27856, Davis Minimal Agar): 1000 µg/mL (≈ 5 mM)
- MIC [12]: > 1000 µg/mL
- MIC ([13]; Davis Minimal Agar): > 1000 µg/mL
- MIC ([13]; Pseudomonas aeruginosa, ATCC8709, BBL Antibiotic Medium "A" Assay Agar, read-out: MIC): > 1000 µg/mL
- MIC ([14]; ATCC9341, BBL Antibiotic Medium "A" Assay Agar): > 1000 µg/mL
- MIC ([14]; ATCC9341, Davis Minimal Agar): > 500 µg/mL
- MIC ([15]; ATCC10153, BBL Antibiotic Medium "A" Assay Agar): > 1000 µg/mL
- MIC ([15]; ATCC10153, Davis Minimal Agar): > 500 µg/mL
- MIC ([16]; ATCC3313, BBL Antibiotic Medium "A" Assay Agar): > 1000 µg/mL
- MIC ([16]; ATCC3313, Davis Minimal Agar): > 500 µg/mL
- MIC ([17]; NRRL477, BBL Antibiotic Medium "A" Assay Agar): > 1000 µg/mL
- MIC ([17]; NRRL477, Davis Minimal Agar): 500 µg/mL (≈ 2.5 mM)
- MIC ([18]; ATCC27860, BBL Antibiotic Medium "A" Assay Agar): > 1000 µg/mL
- MIC ([18]; ATCC27860, Davis Minimal Agar): 0.03 µg/mL (≈ 0.00015 mM)
- MIC ([19]; ATCC27857, BBL Antibiotic Medium "A" Assay Agar): > 1000 µg/mL
- MIC ([19]; ATCC27857, Davis Minimal Agar): > 500 µg/mL
- MIC ([20]; ATCC26820, BBL Antibiotic Medium "A" Assay Agar): 250 µg/mL (≈ 1.25 mM)
- MIC ([20]; ATCC26820, Davis Minimal Agar): 15.7 µg/mL (≈ 0.0784 mM)
